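Five concentrations, 48 hours, 96-well plates. At the GI50, growth is halved.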 The source made the active and inactive calls. Rule as the data show it: active = GI50 up to about 1.1 µM and inactive = higher.
What was measured:
Assay in all cases: NCI anticancer screen, dose series, 48 h
[1] = test system: SK-OV-3
[2] = test system: SF-295
[3] = test system: NCI-H522
[4] = test system: SN12C
[5] = test system: NCI-H23
[6] = test system: HCC 2998
[7] = test system: SR
[8] = test system: OVCAR-3
[9] = test system: HL-60
[10] = test system: SNB-75
[11] = test system: M14
[12] = test system: A549
[13] = test system: HOP-92
[14] = test system: SK-MEL-5

For `C=CC(=O)NCNC(=O)C=C`, the GI50 [1] was > 100 µM (inactive), the GI50 [2] was > 100 µM (inactive) and the GI50 [3] was > 100 µM (inactive). For the same compound, the GI50 [4] was > 100 µM (inactive), the GI50 [5] was > 100 µM (inactive) and the GI50 [6] was > 100 µM (inactive). For the same compound, the GI50 [7] was > 100 µM (inactive), the GI50 [8] was > 100 µM (inactive) and the GI50 [9] was > 100 µM (inactive). For the same compound, the GI50 [10] was > 100 µM (inactive), the GI50 [11] was > 100 µM (inactive) and the GI50 [12] was > 100 µM (inactive). The GI50 [13] was > 100 µM (inactive) and the GI50 [14] was > 100 µM (inactive).
In the case of `Cc1cc(Cl)ccc1NC(=O)C(=O)Cc1ccc([N+](=O)[O-])c([N+](=O)[O-])c1CC(=O)C(=O)Nc1ccc(Cl)cc1C`, the GI50 [1] is reported as > 100 µM (inactive), the GI50 [2] is reported as > 100 µM (inactive) and the GI50 [3] is reported as 99.1 µM (inactive). For the same compound, the GI50 [4] was > 100 µM (inactive), the GI50 [5] was > 100 µM (inactive) and the GI50 [6] was > 100 µM (inactive). The GI50 [7] was 42.1 µM (inactive), the GI50 [8] was 70.3 µM (inactive) and the GI50 [9] was > 100 µM (inactive). The GI50 [10] was > 100 µM (inactive), the GI50 [11] was > 100 µM (inactive) and the GI50 [12] was > 100 µM (inactive). The GI50 [13] was 82 µM (inactive) and the GI50 [14] was > 100 µM (inactive).
With `NC(=O)c1csc(C2CCC(CO)O2)n1` (stereo not given) the GI50 [1] was > 100 µM (inactive), the GI50 [2] was > 100 µM (inactive) and the GI50 [3] was > 100 µM (inactive). For the same compound, the GI50 [4] was > 100 µM (inactive), the GI50 [5] was > 100 µM (inactive) and the GI50 [6] was > 100 µM (inactive). The GI50 [8] was > 100 µM (inactive), the GI50 [9] was > 100 µM (inactive) and the GI50 [11] was > 100 µM (inactive). For the same compound, the GI50 [12] was > 100 µM (inactive) and the GI50 [13] was > 100 µM (inactive).
`Cn1c2c(c3ccccc31)CCN(CCN1CCN(c3ccccc3)CC1)C2=O` was tested, and the GI50 [1] was > 100 µM (inactive), the GI50 [2] was > 100 µM (inactive) and the GI50 [3] was 26.3 µM (inactive). For the same compound, the GI50 [4] was > 100 µM (inactive), the GI50 [5] was 33.5 µM (inactive) and the GI50 [9] was > 100 µM (inactive). The GI50 [11] was > 100 µM (inactive), the GI50 [12] was > 100 µM (inactive) and the GI50 [13] was 31.2 µM (inactive). For the same compound, the GI50 [14] was 61.1 µM (inactive).
`CN1c2ccccc2N(C(=O)c2ccccc2)C(CC(=O)O)c2cccn21` (stereo not given) was tested, and the GI50 [1] was > 100 µM (inactive), the GI50 [2] was > 100 µM (inactive) and the GI50 [3] was > 100 µM (inactive). For the same compound, the GI50 [4] was > 100 µM (inactive), the GI50 [5] was > 100 µM (inactive) and the GI50 [6] was > 100 µM (inactive). The GI50 [8] was > 100 µM (inactive), the GI50 [9] was > 100 µM (inactive) and the GI50 [10] was > 100 µM (inactive). For the same compound, the GI50 [11] was > 100 µM (inactive), the GI50 [12] was > 100 µM (inactive) and the GI50 [13] was 19.4 µM (inactive). The GI50 [14] was > 100 µM (inactive).
In the case of `C=C1CC(C/C=C(\C)CC2CC(=C)C(=O)O2)OC1=O` (stereo not given), the GI50 [1] is reported as > 100 µM (inactive), the GI50 [2] is reported as > 100 µM (inactive) and the GI50 [4] is reported as > 100 µM (inactive). For the same compound, the GI50 [5] was > 100 µM (inactive), the GI50 [6] was > 100 µM (inactive) and the GI50 [7] was > 100 µM (inactive). The GI50 [8] was > 100 µM (inactive), the GI50 [9] was > 100 µM (inactive) and the GI50 [10] was > 100 µM (inactive). For the same compound, the GI50 [11] was > 100 µM (inactive), the GI50 [12] was > 100 µM (inactive) and the GI50 [13] was > 100 µM (inactive). The GI50 [14] was > 100 µM (inactive).
For `Cc1ccc(S(=O)OCC23CC4CC(CC(C4)C2)C3)cc1` (stereo not given), the GI50 [1] was > 100 µM (inactive), the GI50 [2] was > 100 µM (inactive) and the GI50 [3] was > 100 µM (inactive). For the same compound, the GI50 [4] was > 100 µM (inactive), the GI50 [5] was > 100 µM (inactive) and the GI50 [6] was > 100 µM (inactive). For the same compound, the GI50 [7] was > 100 µM (inactive), the GI50 [8] was > 100 µM (inactive) and the GI50 [9] was > 100 µM (inactive). For the same compound, the GI50 [10] was > 100 µM (inactive), the GI50 [11] was > 100 µM (inactive) and the GI50 [12] was > 100 µM (inactive). For the same compound, the GI50 [13] was > 100 µM (inactive) and the GI50 [14] was > 100 µM (inactive).
With `CC(C)(C)C[P+](C)(C)c1ccccc1` the GI50 [1] was > 100 µM (inactive), the GI50 [2] was > 100 µM (inactive) and the GI50 [4] was > 100 µM (inactive). The GI50 [5] was > 100 µM (inactive), the GI50 [6] was > 100 µM (inactive) and the GI50 [7] was > 100 µM (inactive). The GI50 [8] was 91.2 µM (inactive), the GI50 [9] was 67.1 µM (inactive) and the GI50 [10] was > 100 µM (inactive). For the same compound, the GI50 [11] was > 100 µM (inactive), the GI50 [12] was 89.5 µM (inactive) and the GI50 [13] was > 100 µM (inactive). For the same compound, the GI50 [14] was > 100 µM (inactive).
For `NS(=O)(=O)c1ccc(NC(=O)CC(=O)Nc2ccc(S(N)(=O)=O)cc2)cc1`, the GI50 [1] was > 100 µM (inactive), the GI50 [2] was > 100 µM (inactive) and the GI50 [3] was > 100 µM (inactive). The GI50 [4] was > 100 µM (inactive), the GI50 [5] was > 100 µM (inactive) and the GI50 [6] was > 100 µM (inactive). The GI50 [7] was > 100 µM (inactive), the GI50 [8] was > 100 µM (inactive) and the GI50 [9] was > 100 µM (inactive). For the same compound, the GI50 [10] was > 100 µM (inactive), the GI50 [11] was > 100 µM (inactive) and the GI50 [12] was > 100 µM (inactive). The GI50 [13] was > 100 µM (inactive) and the GI50 [14] was > 100 µM (inactive).
For `CCN(CC)CC(=O)Nc1ccc2c(c1)C(=O)c1ccc(NC(=O)CN(CC)CC)cc1C2=O`, the GI50 [1] was 22.9 µM (inactive), the GI50 [2] was 39 µM (inactive) and the GI50 [3] was 21.1 µM (inactive). For the same compound, the GI50 [4] was 20.1 µM (inactive), the GI50 [5] was 77.6 µM (inactive) and the GI50 [6] was > 100 µM (inactive). For the same compound, the GI50 [7] was 18.1 µM (inactive), the GI50 [9] was 18.8 µM (inactive) and the GI50 [10] was 25.7 µM (inactive). For the same compound, the GI50 [11] was 19.7 µM (inactive), the GI50 [12] was 27.9 µM (inactive) and the GI50 [13] was 85.3 µM (inactive). For the same compound, the GI50 [14] was 21.2 µM (inactive).
`CCOC(=O)C1=C(C(=O)OCC)C2(c3ccccc3)N(O1)c1ccccc1C2(C)C` (stereo not given) was tested, and the GI50 [1] was 30.1 µM (inactive), the GI50 [2] was 45.5 µM (inactive) and the GI50 [3] was 22.6 µM (inactive). The GI50 [5] was 30 µM (inactive), the GI50 [6] was 93.1 µM (inactive) and the GI50 [8] was 46.9 µM (inactive). For the same compound, the GI50 [9] was 22.7 µM (inactive), the GI50 [10] was 25.6 µM (inactive) and the GI50 [11] was 38.5 µM (inactive). For the same compound, the GI50 [12] was 45.5 µM (inactive) and the GI50 [14] was 56.4 µM (inactive).
`COc1cc(CNc2nc3c(N)cc(C(F)(F)F)cc3nc2-c2ccccc2)cc(OC)c1OC` was tested, and the GI50 [1] was > 10 µM (inactive), the GI50 [2] was 37.7 µM (inactive) and the GI50 [3] was 11.6 µM (inactive). The GI50 [4] was 70.3 µM (inactive), the GI50 [5] was 19 µM (inactive) and the GI50 [6] was 40.6 µM (inactive). The GI50 [7] was > 10 µM (inactive), the GI50 [8] was 36.1 µM (inactive) and the GI50 [9] was > 10 µM (inactive). For the same compound, the GI50 [10] was 89.3 µM (inactive), the GI50 [11] was 47.1 µM (inactive) and the GI50 [12] was 19 µM (inactive). The GI50 [13] was 22.8 µM (inactive) and the GI50 [14] was 21.3 µM (inactive).
For `O=C(CCc1nnc(S)[nH]1)Nc1ccc(Cl)c(Cl)c1`, the GI50 [1] was > 100 µM (inactive), the GI50 [2] was 50.6 µM (inactive) and the GI50 [3] was 23.4 µM (inactive). The GI50 [4] was > 100 µM (inactive), the GI50 [5] was 53.3 µM (inactive) and the GI50 [7] was 51.2 µM (inactive). The GI50 [8] was 40.6 µM (inactive), the GI50 [9] was 82.4 µM (inactive) and the GI50 [10] was 20 µM (inactive). For the same compound, the GI50 [11] was 27.4 µM (inactive), the GI50 [12] was 40.9 µM (inactive) and the GI50 [13] was 53.2 µM (inactive). The GI50 [14] was 14.1 µM (inactive).
In the case of `O=C1NC(=O)C(C(=O)C(=O)Nc2ccc(Br)cc2)C(=O)N1`, the GI50 [1] is reported as > 100 µM (inactive), the GI50 [2] is reported as > 100 µM (inactive) and the GI50 [3] is reported as > 100 µM (inactive). The GI50 [4] was > 100 µM (inactive), the GI50 [5] was > 100 µM (inactive) and the GI50 [6] was > 100 µM (inactive). The GI50 [7] was > 100 µM (inactive), the GI50 [8] was > 100 µM (inactive) and the GI50 [9] was > 100 µM (inactive). The GI50 [10] was 12.1 µM (inactive), the GI50 [11] was > 100 µM (inactive) and the GI50 [12] was > 100 µM (inactive). For the same compound, the GI50 [13] was > 100 µM (inactive) and the GI50 [14] was > 100 µM (inactive).
In the case of `CC[n+]1c(/C=C/c2ccc(N(CCCl)CCCl)cc2)ccc2cc(Br)ccc21`, the GI50 [1] is reported as 2.23 µM (inactive), the GI50 [2] is reported as 2.65 µM (inactive) and the GI50 [3] is reported as 0.471 µM (active). The GI50 [4] was 2.48 µM (inactive), the GI50 [5] was 2.79 µM (inactive) and the GI50 [6] was 1.38 µM (inactive). For the same compound, the GI50 [7] was 1.46 µM (inactive), the GI50 [8] was 0.587 µM (active) and the GI50 [9] was 0.246 µM (active). The GI50 [10] was 0.312 µM (active), the GI50 [11] was 1.87 µM (inactive) and the GI50 [12] was 3.52 µM (inactive). For the same compound, the GI50 [13] was 1.06 µM (active) and the GI50 [14] was 1.1 µM (active).

— ChEMBL document CHEMBL1201862, “PubChem BioAssay data set” (2004)
